From publication PMC4538536, “In Silico-Based High-Throughput Screen for Discovery of Novel Combinations for Tuberculosis Treatment” (Antimicrobial Agents and Chemotherapy, 2015)
In brackets after ≈: the same amount, converted by molar mass. Like-named read-outs stand apart in the source and are kept apart here.

Experiments:
[1] = tested on: M. tuberculosis H37Rv; experiment: In vitro bactericidal-effect analysis (CFU enumeration of checkerboard wells); assay type: cell-based, Mycobacterium tuberculosis; conditions: single drug at its MIC (FIC of 1); positive = reduction in CFU
Procedure: For determining the extent of the bactericidal effect, sample wells which remained blue in the resazurin microtiter assay (REMA) and whose ΣFICs were within the synergistic-to-additive range (<0.7 for doublets and <1.5 for triplets) were plated on Middlebrook 7H10 agar medium and incubated at 37°C for 21 to 28 days, following which bacterial colonies were enumerated to obtain the net reduction in CFU in comparison to the counts for the untreated controls at the start of drug testing, as well as to that achieved when M. tuberculosis was exposed to each drug alone.

[2] = tested on: M. tuberculosis H37Rv; experiment: MIC determination, resazurin-based microplate assay; assay type: cell-based, Mycobacterium tuberculosis; conditions: single drug
[3] = In vivo pharmacokinetics in infected mice (plasma, LC-MS/MS); parameters: species or system BALB/c mice; conditions: BALB/c, mouse, plasma, po, steady state, infected mice
Procedure: The drugs were formulated in 0.5% hydroxypropyl methyl cellulose (HPMC)–0.1% Tween 80 suspensions as 3- or 4-drug combinations. Formulations were prepared by weighing and adding each compound to the bottle, according to the design. Formulation vehicle was added, and the suspension was stirred overnight. Only uniform suspensions were used, while those that precipitated were abandoned. Formulations were prepared every week, and compound stability was estimated at the end of the week. Pharmacokinetics (PK) analysis was performed on infected mice on the 20th day of dosing. Blood samples were collected from each mouse at 0.5, 2, 4, 6, and 24 h after compound administration. Blood samples of about 30 μl were collected from mice in all groups by serial sampling via the saphenous vein into Microvette CB300 tubes (Starstedt, Germany) coated with EDTA, and plasma (10 μl) was separated following centrifugation. Plasma samples were stored at –20°C until analysis using liquid chromatography-tandem mass spectrometry (LC-MS/MS).
A 1-mg/ml stock solution of each compound was prepared in dimethyl sulfoxide (DMSO) for all of the analytes except PZA and LZD, for which the stock solution was 10 mg/ml in DMSO, and RIF, for which the stock solution was prepared in 50% acetonitrile in water. Three different sets of calibration standard (CS) combinations were prepared by 2-fold dilution of the stock solutions. CS set 1 contained analytes CLO, BDQ, PA824, PZA, and SQ109, CS set 2 contained analytes BTZ043, MXF, THI, EMB, and PZA, and CS set 3 contained LZD, INH, RIF, and PZA. A 16-point calibration curve was utilized for all analytes, and the standard curves ranged from 0.0005 to 20 μg/ml except for PZA and LZD, for which the standard curve range was 0.006 to 200 μg/ml. Plasma samples were precipitated by adding chilled acetonitrile (1:10, vol/vol) containing carbamazepine as an internal standard (10 ng/ml). Samples were vortexed and then centrifuged at 4,000 rpm for 30 min at 10°C. The resulting supernatant was mixed with the mobile phase (50% acetonitrile in water with 0.1% formic acid). Five microliters of the sample was injected on to a liquid chromatographic system (Acquity ultraperformance liquid chromatography [UPLC] system, Waters, Milford, MA) coupled to a triple-quadrupole mass spectrometer (Xevo TQ-S; Waters, Milford, MA). Samples were separated on an LC column (ACE 3 C18, 50 by 4.6 mm, 3 μm particle size; Advanced Chromatography Technologies, Aberdeen, Scotland) by isocratic elution with 40 parts of 20 mM ammonium formate containing 0.1% (vol/vol) formic acid and 60 parts of acetonitrile at a flow rate of 0.5 ml/min with a run time of 4 min. Samples were acquired in positive ion mode and detected by multiple reaction monitoring (MRM). The concentrations of the analyte were determined from a standard curve obtained by plotting known concentrations of the analyte against peak area ratios (analyte/internal standard peak response).
PK analyses of the plasma concentration-time relationships were performed with Phoenix software (version 6.2; Pharsight, USA). A noncompartmental analysis program, model 200, was used to calculate PK parameters. The maximum concentration of drug in plasma (Cmax), time to Cmax (Tmax), elimination half-life (t1/2), and area under the concentration-time curve (AUC) from time zero to infinity (AUC0–∞) were estimated. AUC was computed using the trapezoidal rule (linear up and log down), and the AUC0–∞ was considered only when the extrapolated AUC was not more than 20% of the original value. A minimum of three sample points in the terminal slope were used to calculate half-life.

[4] = 150 mg/kg, Group 9 quartet EMB 100/SQ109 25/LZD 130/PZA 150 mg/kg oral, read-out: AUC0-24 in Quartet
[5] = 150 mg/kg, Group 9 quartet EMB 100/SQ109 25/LZD 130/PZA 150 mg/kg oral, read-out: Cmax in Quartet

## NC[C@H]1O[C@H](O[C@H]2[C@H](O)[C@@H](O[C@H]3O[C@H](CO)[C@@H](O)[C@H](N)[C@H]3O)[C@H](N)C[C@@H]2N)[C@H](O)[C@@H](O)[C@@H]1O [Kanamycin]
[1]
  ΔLog10 CFU/ml at the MIC: 0.44 Log10 CFU/ml
[2]
  MIC: 1.61 µM (≈ 0.78 µg/mL)

## CC(=O)NC[C@H]1CN(c2ccc(N3CCOCC3)c(F)c2)C(=O)O1 [Linezolid]
[1]
  ΔLog10 CFU/ml at the MIC: 0.25 Log10 CFU/ml
[2]; Mycobacterium tuberculosis
  MIC: 2.31 µM (≈ 0.779 µg/mL)
[3]; 130 mg/kg, Group 9 triplet EMB 100/SQ109 25/LZD 130 mg/kg oral, read-out: AUC0-24 in Triplet
  AUC(0-t): 154 ± 8.8 µg·h/mL
[3]; 130 mg/kg, Group 9 triplet EMB 100/SQ109 25/LZD 130 mg/kg oral, read-out: Cmax in Triplet
  Cmax: 14100 ± 100 ng/mL
[3]; [4]
  AUC(0-t): 178 ± 12.2 µg·h/mL
[3]; [5]
  Cmax: 14900 ± 1200 ng/mL

## C[C@@H](O)[C@H]1C(=O)N2C(C(=O)O)=C(S[C@@H]3CN[C@H](C(=O)N(C)C)C3)[C@H](C)[C@H]12 [Meropenem]
[1]
  ΔLog10 CFU/ml at the MIC: 0.57 Log10 CFU/ml
[2]; Mycobacterium tuberculosis
  MIC: 8.15 µM (≈ 3.13 µg/mL)

## NC(=O)c1cnccn1 [Pyrazinamide]
[3]; 150 mg/kg, Group 1 quartet CFZ 20/BDQ 25/PA824 50/PZA 150 mg/kg oral, read-out: AUC0-24 in Quartet
  AUC(0-t): 115 ± 6.5 µg·h/mL
[3]; 150 mg/kg, Group 1 quartet CFZ 20/BDQ 25/PA824 50/PZA 150 mg/kg oral, read-out: Cmax in Quartet
  Cmax: 64000 ± 9800 ng/mL
[3]; 150 mg/kg, Group 2 quartet SQ109 25/BDQ 25/PA824 50/PZA 150 mg/kg oral, read-out: AUC0-24 in Quartet
  AUC(0-t): 148 ± 2.1 µg·h/mL
[3]; 150 mg/kg, Group 2 quartet SQ109 25/BDQ 25/PA824 50/PZA 150 mg/kg oral, read-out: Cmax in Quartet
  Cmax: 64500 ± 3100 ng/mL
[3]; 150 mg/kg, Group 3 quartet BTZ043 37.5/SQ109 25/MXF 200/PZA 150 mg/kg oral, read-out: AUC0-24 in Quartet
  AUC(0-t): 156 ± 13.2 µg·h/mL
[3]; 150 mg/kg, Group 3 quartet BTZ043 37.5/SQ109 25/MXF 200/PZA 150 mg/kg oral, read-out: Cmax in Quartet
  Cmax: 42000 ± 700 ng/mL
[3]; 150 mg/kg, Group 5 quartet EMB 100/BDQ 25/SQ109 25/PZA 150 mg/kg oral, read-out: AUC0-24 in Quartet
  AUC(0-t): 144 ± 29.5 µg·h/mL
[3]; 150 mg/kg, Group 5 quartet EMB 100/BDQ 25/SQ109 25/PZA 150 mg/kg oral, read-out: Cmax in Quartet
  Cmax: 67200 ± 2500 ng/mL
[3]; 150 mg/kg, Group 6 quartet BTZ043 37.5/THI 800/SQ109 25/PZA 150 mg/kg oral, read-out: AUC0-24 in Quartet
  AUC(0-t): 154 ± 23.8 µg·h/mL
[3]; 150 mg/kg, Group 6 quartet BTZ043 37.5/THI 800/SQ109 25/PZA 150 mg/kg oral, read-out: Cmax in Quartet
  Cmax: 40200 ± 13300 ng/mL
[3]; 150 mg/kg, Group 7 quartet PA824 50/BDQ 25/MXF 400/PZA 150 mg/kg oral, read-out: AUC0-24 in Quartet
  AUC(0-t): 144 ± 16.9 µg·h/mL
[3]; 150 mg/kg, Group 7 quartet PA824 50/BDQ 25/MXF 400/PZA 150 mg/kg oral, read-out: Cmax in Quartet
  Cmax: 33200 ± 2300 ng/mL
[3]; 150 mg/kg, Group 8 quartet PA824 50/BDQ 25/EMB 100/PZA 150 mg/kg oral, read-out: AUC0-24 in Quartet
  AUC(0-t): 127 ± 9 µg·h/mL
[3]; 150 mg/kg, Group 8 quartet PA824 50/BDQ 25/EMB 100/PZA 150 mg/kg oral, read-out: Cmax in Quartet
  Cmax: 69000 ± 12700 ng/mL
[3]; [4]
  AUC(0-t): 119 ± 7 µg·h/mL
[3]; [5]
  Cmax: 39500 ± 4400 ng/mL
[3]; 150 mg/kg, Ref. regimen quartet INH 30/RIF 10/EMB 100/PZA 150 mg/kg oral, read-out: AUC0-24 in Quartet
  AUC(0-t): 161 ± 18.8 µg·h/mL
[3]; 150 mg/kg, Ref. regimen quartet INH 30/RIF 10/EMB 100/PZA 150 mg/kg oral, read-out: Cmax in Quartet
  Cmax: 69700 ± 9700 ng/mL

## [H]/N=C(/N)N[C@H]1[C@H](O)[C@@H](O)[C@H](O[C@@H]2O[C@@H](C)[C@](O)(C=O)[C@H]2O[C@@H]2O[C@@H](CO)[C@H](O)[C@@H](O)[C@@H]2NC)[C@@H](N/C(N)=N\[H])[C@@H]1O [Streptomycin]
[1]
  ΔLog10 CFU/ml at the MIC: 0.36 Log10 CFU/ml
[2]; Mycobacterium tuberculosis
  MIC: 0.68 µM (≈ 0.395 µg/mL)

## Capreomycin
[1]
  ΔLog10 CFU/ml at the MIC: −0.11 Log10 CFU/ml
[2]
  MIC: 5.91 µM
